In patent US20230413879A1, “FOOD COMPRISING ISOSTEVIOL AND USES THEREOF” (ISOFIRMS APS, priority 2020, published 2023):
“Also recorded” adds a separate entry of the source.

Tests used:
pigs [1] = experiment: Meat (muscle) percentage at slaughter, ultrasound Autoform (Example 5); assay type: in vivo, pig (Danish Landrace); conditions: FIG. 5-6
Description: See also previous examples.
Meat percentage is measured when the pig is dead. The body is prepared and send to an automatic equipment that measures fat/meat thicknesses based on ultrasound measurements called an Autoform. The equipment is certified by third party and the meat percentages in this study was performed by Tican A/S at the slaughterhouse in Brdrup.
Increased meat (muscle) percentage can also be considered to correspond to an increased muscle/fat ratio.

pigs [2] = experiment: Turnover rate: days to grow pigs from approx. 30 kg to around 118 kg (Example 6); assay type: in vivo, pig (Danish Landrace)
From the text: See also previous examples. Turnover rates of the pigs was defined by the time (days) it takes to grow the pigs from approx. 30 kg to around 118 kg. Thus, turnover time is the time it takes to grow the pigs from approx. 30kg to their optimum slaughter weight. The faster the turnover rate is, the faster the pigs goes through the process and consequently this is the determination factor on how many pigs the farmer can deliver to the slaughterhouse within a year.

piglets [3] = experiment: Larger pig trial: feed conversion ratio (FCR) (Example 8); assay type: in vivo, pig (DanBred x Duroc); conditions: for Feed conversion ratio (FCR) versus negative control: 42 days trial
From the text: In this regard, the food/feed conversion ratio (FCR) is defined as the ratio between the amount of food eaten by an animal to the output produced by the animal (e.g. amount of meat produced by a pig, amount of milk produced by a cow etc.). Food that is efficiently taken up and converted by the body of the animal to said output obtains a FCR-value lower than a food having a low uptake in the animal. Thus, lower FCR-values are preferred for most applications. In some sectors, feed efficiency, which is the output divided by the input (i.e. the inverse of FCR), is used.
(§1) Trial with 360 barrows and female piglets (DanBred×Duroc; initial BW of about 6.8 kg).
(§2) Age when trial started approx. 7 days and trial ended after 42 days. They weighed approx. 7 kg initially and have been feed as per normal conventional diet for piglets until delivery.
(§3) Basal diets as per standard industry feed: • Prestarter diet for post-weaning piglets: 7.0 to 9.0 kg BW • Starter diet for piglets: 9.0 to 15.0 kg BW • Grower diet for piglets: 15.0 to 30.0-35.0 kg BW.
(§4) Isosteviol >97% was produced in-house. Isosteviol may be produced by acid-catalysed extraction of Stevia rebaudiana L. Preferably at a pH below 5.5.
(§5) • Negative control: No isosteviol • Treatment 1 (IS10): 1% isosteviol mg/kg Bodyweight (BW) • Treatment 2 (IS13): 1.3% isosteviol mg/kg Bodyweight (BW)
(§6) The pigs were fed standard diets supplemented with Isosteviol as outlined above.
(§7) IsoSteviol Premix 0.71% was produced in Vilofoss Premix factory, and included at 0.29/0.37, 0.25/0.33% (by weight) in complete feed to reach 1/1.3 mg IsoSteviol/kg BW (bodyweight).
(§8) The piglets were randomly distributed in 10 pigsties per treatment when trial started. Food and water were provided ad libitum. The farmer was not aware of which groups received which additional feed, since all feeds were masked to look the same and the control group received a bag similar to the other groups.

pigs [4] = experiment: Stool firmness / diarrhea in pigs (Example 4); assay type: in vivo, pig (Danish Landrace); conditions: groups receiving isosteviol (IPG and IG) compared to control groups (CG and CPG)
pigs [5] = experiment: Pig feeding trial: growth rate / weight gain (Example 2); assay type: in vivo, pig (Danish Landrace); conditions: for Average weight (kg) start: baseline; for Net growth vs. CG group / Net growth vs. CPG group: index; for Net growth vs. CG group: CG = 100; for Net growth vs. CPG group: CPG = 100; for Average weight (kg) Increase: start to week 8
From the text: Isosteviol in 97% purity was produced in-house. Isosteviol may be produced by acid-catalysed extraction of Stevia rebaudiana L. Preferably at a pH below 5.5.
The pigs were of the type Danish Landrace Age approx. 90 days, gender equally distributed. They weighted approximately 30 kg when delivered and had been fed with a normal conventional diet for piglets until delivery.
• Standard feed is home-blended by the farmer with the ratio: Wheat 55 w %, Barley 35 w %, Rye 10 w %. • Nutritional profile/100 g: • Nutritional content: 1313 KJ • Fat: 1.8 g • Carbohydrate: 68.9 g • Of which sugar: 1.4 g • Fibres: 15.8 g • Protein: 12.8 g • Supplementary feed: The Supplementary feed was distributed as a “Semi Soja 1920” composition (from DLG), which is a supplementary feed high in protein, carbohydrate, and free amino acids.
The pigs were randomly distributed in the five pigsties when trial started. Food and water were provided ad libitum (see Table 2). The farmer was not aware of which groups received which additional feed, since all feeds were masked to look the same and the CG group received a bag similar to the other groups.
Every other week the pigs were weighed, and their growth were noted. The pigs were attended too equally.
Timeframe: Trial started after delivery of the 30 kg pigs and was planned to end when the pigs weighed around 115-118 kg, the weight at trial-end was however around 120 kg (11 weeks). Total time for production is 72 days.
The food intake by each pig during the trial is described in Table 3.

piglets [6] = experiment: Larger pig trial: body weight / weight gain (Example 8); assay type: in vivo, pig (DanBred x Duroc); conditions: for weight gain versus negative control: week 3-6 and week 1-6 / 42 days trial; for Body weight [kg] Mean SD 0 / Body weight [kg] Median SD 0: baseline
From the text: as §1, §2, §3, §4, §5, §6, §7, §8

pigs [7] = experiment: Overall uptake of feed judged by generated manure and stool analysis (Example 3); assay type: in vivo, pig (Danish Landrace)
Description: See example 1. Overall uptake of feed was determined by the amount of generated manure by the different groups.

broiler chickens = conditions: cited from earlier work
[8] = Treatment 1 (IS10), 1 mg IsoSteviol/kg BW in feed
[9] = Treatment 2 (IS13), 1.3 mg IsoSteviol/kg BW in feed
[10] = IG group (standard feed incl. standard dose of supplementary feed + isosteviol 1 mg/kg/day), 8 pigs
[11] = IPG group (standard feed + additional 10 w % supplementary feed + isosteviol 1 mg/kg/day), 9 pigs
[12] = IG group (isosteviol only, 1 mg/kg/day)
[13] = IPG group (additional 10 w % supplementary feed + isosteviol 1 mg/kg/day)

## C[C@@]12CC[C@@H]3[C@@](CC[C@H]4[C@@]3(C)CCC[C@@]4(C)C(=O)O)(CC1=O)C2 [isosteviol]
Pigs [1]; IG group (isosteviol alone) vs control
  meat (muscle) percentage / muscle/fat ratio: very significant increase of the muscle weight; also recorded: increase
Pigs [1]; IPG group (isosteviol + supplementary feed) vs control
  meat (muscle) percentage / muscle/fat ratio: increased their muscle/fat ratio to a significant degree; also recorded: increase
Pigs [2]; IG group, data not shown
  increase of yearly turnover in production vs CG group: 0.1%
Pigs [2]; IPG group, FIG. 8
  increase of yearly turnover rate in production vs CG group: around 4.8%
Piglets [3]; Treatment 1 (+Isosteviol), FIG. 12
  Feed conversion ratio (FCR) versus negative control: significant decreased feed conversion ratio; also recorded: More than relevant superiority
Piglets [3]; [8]
  Feed Conversion Ratio (FCR) Mean SD 42: 1.399
  Feed Conversion Ratio (FCR) Median SD 42: 1.380
Piglets [3]; Treatment 2 (+Isosteviol), FIG. 13
  Feed conversion ratio (FCR) versus negative control: significant decreased feed conversion ratio; also recorded: More than relevant superiority
Piglets [3]; [9]
  Feed Conversion Ratio (FCR) Mean SD 42: 1.393
  Feed Conversion Ratio (FCR) Median SD 42: 1.360
Pigs [4]
  stool firmness: more firm; also recorded: much firmer stool
Pigs [5]; FIG. 1, Isosteviol and protein group (IPG) vs CG at index 100
  growth exceeding that of control group (CG): 4.0%
Pigs [5]; FIG. 2, Isosteviol and protein group (IPG) vs CPG at index 100
  growth exceeding that of control+protein group (CPG): 5.8%
Pigs [5]; FIG. 3, Isosteviol group (IG) vs CG at index 100
  growth exceeding that of control group (CG): 0.8%
Pigs [5]; [10]
  Average weight (kg) week 8: 99.50 kg
  Average weight (kg) start: 35.00 kg
Pigs [5]; IG group, FIG. 3, in words
  weight gain compared to the Control (CG) group: clear increased weight gain
Pigs [5]; [11]
  Average weight (kg) week 8: 99.78 kg
  Average weight (kg) start: 33.11 kg
Pigs [5]; IPG group, FIG. 1, in words
  weight gain compared to the control group (CG): clear increased weight gain
Pigs [5]; IPG group, FIG. 2, in words
  weight gain compared to the CPG group: clear increased weight gain
Pigs [5]; [12]
  Net growth vs. CG group: 100.8
  Net growth vs. CPG group: 102.71
  Average weight (kg) Increase: 64.50 kg
Pigs [5]; [13]
  Net growth vs. CG group: 104.0
  Net growth vs. CPG group: 105.80
  Average weight (kg) Increase: 66.67 kg
Piglets [6]; Treatment 1 (+Isosteviol), FIG. 10, p<0.0023
  weight gain versus negative control: significant higher weight gain; also recorded: Observed relevant superiority, significant proven
Piglets [6]; [8]
  Body weight [kg] Mean SD 10: 11.568 kg
  Body weight [kg] Mean SD 21: 15.783 kg
  Body weight [kg] Mean SD 42: 32.660 kg
  Body weight [kg] Median SD 10: 11.550 kg
  Body weight [kg] Median SD 21: 15.900 kg
  Body weight [kg] Median SD 42: 33.200 kg
  Body weight [kg] Mean SD 0: 7.868 kg
  Body weight [kg] Median SD 0: 7.850 kg
Piglets [6]; Treatment 2 (+Isosteviol), FIG. 11, p<0.0158
  weight gain versus negative control: significant higher weight gain; also recorded: Observed relevant superiority, significant proven
Piglets [6]; [9]
  Body weight [kg] Mean SD 10: 11.574 kg
  Body weight [kg] Mean SD 21: 15.558 kg
  Body weight [kg] Mean SD 42: 32.293 kg
  Body weight [kg] Median SD 10: 11.500 kg
  Body weight [kg] Median SD 21: 15.600 kg
  Body weight [kg] Median SD 42: 32.000 kg
  Body weight [kg] Mean SD 0: 7.865 kg
  Body weight [kg] Median SD 0: 7.875 kg
Pigs [7]; IPG group compared to the control group
  appearance of pigs noted by the farmer (muscle to fat ratio): leaner and more firmly meaty
Pigs [7]; isosteviol added to feed (IPG) vs CPG group, FIG. 4
  overall uptake of the feed (amount of generated manure): higher overall uptake of the feed
Pigs [7]; preliminary stool analysis, considering the quantity of manure discharged, data not shown
  decrease of the amount of nutritional ingredients in stool: approx. 6%

## C=C1C[C@@]23CC[C@H]4[C@@](C)(CCC[C@@]4(C)C(=O)O[C@@H]4O[C@H](CO)[C@@H](O)[C@H](O)[C@H]4O)[C@@H]2CC[C@]1(O[C@@H]1O[C@H](CO)[C@@H](O)[C@H](O)[C@H]1O[C@@H]1O[C@H](CO)[C@@H](O)[C@H](O)[C@H]1O)C3 [stevioside]
Broiler chickens; fed orally to broiler chickens
  effect on the broilers: no positive effect
Broiler chickens; in a diet for broilers
  abdominal fat content of the chicken: significantly increased
